This passage reports relative viability results from the supplement of paper PMC10307832.

Experiment in all cases: relative viability (nuclei count vs DMSO), 5 days (fraction); higher = more cells survive
Compound in experiment [1]: CN1CCC(CNc2ccc3ncc(-c4cccc(OC(F)(F)F)c4)n3n2)CC1 [SGI-1776] + CC(=O)Nc1cccc(-n2c(=O)n(C3CC3)c(=O)c3c(Nc4ccc(I)cc4F)n(C)c(=O)c(C)c32)c1 [Trametinib] (partner 0.02 µM)
The method, boiled down: (§1)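 Cells from lung cancer lines were seeded into 1536-well plates and, one day later, dosed by pin tool. Treatments were either a single drug or a fixed dose of an anchor drug with five library-drug doses (not always all listed) in √10 steps. After 5 days, nuclei were stained in a one-step fixation (final 0.05% Triton X-100, 1% formaldehyde, 1 ug/ml Hoechst) and counted on 4× images, and relative viability is the treated-to-vehicle nuclei ratio, as the median of duplicate plates.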

Compound in experiment [2]: C1COCCN1C2=NC(=NC3=C2OC4=C3C=CC=N4)C5=CC(=CC=C5)NC(=O)C6=CN=C(C=C6)N + Cc1cc(Nc2cc(N3CCN(C)CC3)nc(Sc3ccc(NC(=O)C4CC4)cc3)n2)n[nH]1 [Tozasertib] (partner 0.1 µM)
The method, boiled down: as §1

Compound in experiment [3]: CN1CCC(CNc2ccc3ncc(-c4cccc(OC(F)(F)F)c4)n3n2)CC1 [SGI-1776] + Nc1nc2[nH]cc(CCc3ccc(C(=O)N[C@@H](CCC(=O)O)C(=O)O)cc3)c2c(=O)[nH]1 [Pemetrexed] (partner 0.2 µM)
The method, boiled down:
as §1

Compound in experiment [4]: Nc1ccccc1NC(=O)c1ccc(CNC(=O)OCc2cccnc2)cc1 [Entinostat] + Cc1nc(Nc2ncc(C(=O)Nc3c(C)cccc3Cl)s2)cc(N2CCN(CCO)CC2)n1 [Dasatinib] (partner 0.075 µM)
An outline of the steps:
as §1

SW 1573: the relative viability in experiment [1] (first compound 0.08 µM) was determined as 0.525; in experiment [1] (first compound 0.8 µM), 0.444; in experiment [1] (first compound 2.53 µM), 0.463; in experiment [1] (first compound 8 µM), 0.305; in experiment [2] (first compound 0.02 µM), 0.207; in experiment [2] (first compound 0.06325 µM) it was 0.159. Also, the relative viability was 0.175 in experiment [2] (first compound 0.2 µM); 0.188 in experiment [2] (first compound 0.6325 µM); 0.152 in experiment [2] (first compound 2 µM); 0.896 in experiment [3] (first compound 0.08 µM); 0.799 in experiment [3] (first compound 0.8 µM); 0.77 in experiment [3] (first compound 2.53 µM). The relative viability worked out at 0.671 in experiment [3] (first compound 8 µM); 0.532 in experiment [4] (first compound 0.02 µM); 0.518 in experiment [4] (first compound 0.06325 µM); 0.711 in experiment [4] (first compound 0.2 µM); 0.627 in experiment [4] (first compound 0.6325 µM); 0.454 in experiment [4] (first compound 2 µM).
